Test system: Fibroblast
Experiment: Anticancer activity against cobalt radiation CT-1 transformed fibroblasts
Assay type: functional, cell-based

SMILES | IC50 [µM]
C=CCSS/C=C/C[S+]([O-])CCC (stereo not drawn) | 26.7
C=CCSS/C=C/C[S+]([O-])C(C)(C)C (stereo not drawn) | 33.1
C=CCSS/C=C\C[S+]([O-])CCCO (stereo not drawn) | 22.8
C=CCSS/C=C/C[S+]([O-])CCCOCc1ccc(OC)cc1 (stereo not drawn) | 23.5
C=CCSS/C=C\C[S+]([O-])CCCOCc1ccc(OC)cc1 (stereo not drawn) | 21.7
C=CCSS/C=C/C[S+]([O-])CCCO (stereo not drawn) | 23.1
C=CCSS/C=C/C[S+]([O-])Cc1ccc(OC)cc1 (stereo not drawn) | 11.2
C=CCSS/C=C\C[S+]([O-])CCCN1C(=O)c2ccccc2C1=O (stereo not drawn) | 34.6
C=CCSS/C=C/C[S+]([O-])Cc1ccccc1 (stereo not drawn) | 16.6
C=CCSS/C=C\C[S+]([O-])CCC (stereo not drawn) | 17
C=CCSS/C=C/C[S+]([O-])CCCN1C(=O)c2ccccc2C1=O (stereo not drawn) | 95.9
C=CCSS/C=C\C[S+]([O-])CC=C (stereo not drawn) [(Z)-Ajoene] | 15.5
C=CCSS/C=C/C[S+]([O-])CC=C (stereo not drawn) [AJOENE] | 17.6

From ChEMBL document CHEMBL1141704, “Substituted ajoenes as novel anti-cancer agents” (Bioorg Med Chem Lett, 2008)
